Experimental findings from patent US20160366888A1, “ENVIRONMENTALLY FRIENDLY FORMULATIONS FOR BI-COMPONENT HETEROCYCLIC SCHIFF BASE TEXTILE FINISHES” (Government of the United States as Represented by the …, priority 2013, published 2016) are described below.

In one assay the test system is B. subtilis. In words: Antimicrobial activity (zone of inhibition) of treated cotton fabric. It counts as cell-based. The following applies: aqueous solution applied to cotton fabric; observation over all plates. The source says:
(§1) Each aqueous solution prepared and applied to cotton fabric and tested for antimicrobial activity.
(§2) In Table 2, below, “5+” represents a zone of inhibition ranging 41 mm to 50 mm; “4+” represents a zone of 31 mm to 40 mm; “3+” represents a zone of 21 mm to 30 mm; “2+” represents a zone of 11 mm to 20 mm; “1+” represents a zone of 1 mm to 10 mm; and “−” represents no antimicrobial activity noted.
(§3) The American Association of Textile Chemists and Colorists (AATCC) test method 147, Antibacterial Assessment of Textile Materials was used to qualitatively test the biocidal efficacy of pretreatment solutions according to an embodiment of the present invention. Test material was aseptically transferred directly onto the surface of an inoculated nutrient agar slurry. After a specified incubation contact time, the test material was removed and any growth, or lack thereof, beneath the test material surface is recorded.

A further assay has as its system S. aureus. Described as above. It counts as cell-based. As to conditions: aqueous solution applied to cotton fabric; observation over all plates.
Text: as §1, §2, §3

With `Oc1cccc2cccnc12` [8HQ, 8-hydroxyquinoline], the “clearing of plates in words, B. subtilis” value in the assay on B. subtilis is reported as “cleared plates 2”.

Take `O=S(=O)(O)O.Oc1cccc2cccnc12.Oc1cccc2cccnc12` [Quinolinol salt hemisulfate, 8-HQ hemisulfate]: the “clearing of plates in words, S. aureus” value in the assay on S. aureus is “Cleared all of”.
